# Assay results from US20220194936A1, “CRYSTALLINE FORMS OF N-(5-(5-((1R,2S)-2-FLUOROCYCLOPROPYL)-1,2,4-OXADIAZOL-3-YL)-2-METHYLPHENYL)IMIDAZO[1,2-A]PYRIDINE-3-CARBOXAMIDE” (Novartis AG, priority 2019, published 2022).
# How the values were obtained:
# Type in all cases: physicochemical
# [1] = Evaluation of closed container thermal degradation (solid state, 1 week; HPLC, XRPD, color); conditions: tight container; for Bulk (XRPD): 50° C. and 80° C.
# Description: 5-(5-((1R,2S)-2-fluorocyclopropyl)-1,2,4-oxadiazol-3-yl)-2-methylphenyl)imidazo[1,2-a]pyridine-3-carboxamide Form A (10 mg) was placed in a closed vial at 50° C. and 80° C. chamber for 1 week. The initial purity of (5-(5-((1R,2S)-2-fluorocyclopropyl)-1,2,4-oxadiazol-3-yl)-2-methylphenyl)imidazo[1,2-a]pyridine-3-carboxamide Form A was 99.7%.
# The samples were examined by XRPD for physical stability determination and by HPLC for chemical stability determination indicated by the presence of degradation products (DP).
# The HPLC method used is described in Example 13-1. The color (CL) of the samples was evaluated by visual observation.
# (5-(5-((1R,2S)-2-fluorocyclopropyl)-1,2,4-oxadiazol-3-yl)-2-methylphenyl)imidazo[1,2-a]pyridine-3-carboxamide fumaric acid co-crystal (10 mg) was placed in a closed vial at 50° C. and 80° C. chamber for 1 week. The initial purity of (5-(5-((1R,2S)-2-fluorocyclopropyl)-1,2,4-oxadiazol-3-yl)-2-methylphenyl)imidazo[1,2-a]pyridine-3-carboxamide Fumaric acid co-crystal was 99.7%.
# The HPLC method used is described in Example 19-1. The color (CL) of the samples was evaluated by visual observation.
# [2] = Water activity evaluation - crystal modification (water/ethanol, 2 weeks, XRPD)
# Description: 5-(5-((1R,2S)-2-fluorocyclopropyl)-1,2,4-oxadiazol-3-yl)-2-methylphenyl)imidazo[1,2-a]pyrindine-3-carboxamide Form A (10 mg) was placed in a vials containing various ratios of water and ethanol and allowed to equilibrate for 2 weeks. The samples were then examined by XRPD for physical stability determination. The results are given below in Table 5 which show conversion to Form HA and Form HB occurs depending on the water activity. […]
# [3] = Crystal modification after equilibration in water for 2 weeks (XRPD); conditions: after 2 weeks in water
# Description: 5-(5-((1R,2S)-2-fluorocyclopropyl)-1,2,4-oxadiazol-3-yl)-2-methylphenyl)imidazo[1,2-a]pyrindine-3-carboxamide Form A (10 mg) was placed in a vial containing water for 2 weeks and the sample was then examined by XRPD for physical stability determination. It was observed that after 2 weeks in water 5-(5-((1R,2S)-2-fluorocyclopropyl)-1,2,4-oxadiazol-3-yl)-2-methylphenyl)imidazo[1,2-a]pyridine-3-carboxamide Form A converted to 5-(5-((1R,2S)-2-fluorocyclopropyl)-1,2,4-oxadiazol-3-yl)-2-methylphenyl)imidazo[1,2-a]pyridine-3-carboxamide Form HB.
# 5-(5-((1R,2S)-2-fluorocyclopropyl)-1,2,4-oxadiazol-3-yl)-2-methylphenyl)imidazo[1,2-a]pyrindine-3-carboxamide Fumaric acid co-crystal (10 mg) was placed in a vial containing water for 2 weeks and the sample was then examined by XRPD for physical stability determination. No change in XRPD was observed after 2 weeks in water.
# [4] = Evaluation of Xenon light exposure (HPLC, XRPD, color); conditions: Xenon light (approx. 1200 kLuxh, 25° C.)
# Description: 5-(5-((1R,2S)-2-fluorocyclopropyl)-1,2,4-oxadiazol-3-yl)-2-methylphenyl)imidazo[1,2-a]pyridine-3-carboxamide Form A (10 mg) was placed in a container and exposed to approximately 1200 kLuxh of Xenon light at 25° C. The sample was examined by XRPD for physical stability determination and by HPLC for chemical stability determination indicated by the presence of degradation products (DP). The HPLC method used is described in Example 13-1. The color (CL) of the samples was evaluated by visual observation.
# 5-(5-((1R,2S)-2-fluorocyclopropyl)-1,2,4-oxadiazol-3-yl)-2-methylphenyl)imidazo[1,2-a]pyridine-3-carboxamide Fumaric acid co-crystal (10 mg) was placed in a container and exposed to approximately 1200 kLuxh of Xenon light at 25° C. The sample was examined by XRPD for physical stability determination and by HPLC for chemical stability determination indicated by the presence of degradation products (DP). The HPLC method used is described in Example 19-1. The color (CL) of the samples was evaluated by visual observation.
# [5] = Evaluation of the effect of grinding and granulation; conditions: Grinding and granulation with added water or ethanol
# Description: 5-(5-((1R,2S)-2-fluorocyclopropyl)-1,2,4-oxadiazol-3-yl)-2-methylphenyl)imidazo[1,2-a]pyridine-3-carboxamide Form A (10 mg) was placed in a container and ground with added water or ethanol.
# 5-(5-((1R,2S)-2-fluorocyclopropyl)-1,2,4-oxadiazol-3-yl)-2-methylphenyl)imidazo[1,2-a]pyridine-3-carboxamide fumaric acid co-crystal (10 mg) was placed in a container and ground with added water or ethanol.
# [6] = Hygroscopicity by DVS at 25° C.
# Description: The hygroscopicity of 5-(5-((1R,2S)-2-fluorocyclopropyl)-1,2,4-oxadiazol-3-yl)-2-methylphenyl)imidazo[1,2-a]pyridine-3-carboxamide Form A was evaluated by DVS at 25° C. and various RH values. The samples was examined by XRPD for physical stability determination.
# The hygroscopicity of 5-(5-((1R,2S)-2-fluorocyclopropyl)-1,2,4-oxadiazol-3-yl)-2-methylphenyl)imidazo[1,2-a]pyridine-3-carboxamide fumaric acid co-crystal was evaluated by DVS at 25° C. and various RH values. The samples was examined by XRPD for physical stability determination.
# [7] = Water activity 0.000, Water/ethanol (v/v) 0.000/1.000, 2 weeks
# [8] = Water activity 0.099, Water/ethanol (v/v) 0.013/0.987, 2 weeks
Structure (SMILES),Bulk (XRPD) [1],CL (color) ([1]; 50° C.),"DP (%) degradation products, Bulk (HPLC) ([1]; 50° C.)",CL (color) ([1]; 80° C.),"DP (%) degradation products, Bulk (HPLC) ([1]; 80° C.)","Modification (XRPD) [2, 7]","Modification (XRPD) [2, 8]",Crystal modification by XRPD [3],Bulk (XRPD) [4],CL (color) [4],"DP (%) degradation products, Bulk (HPLC) [4]",Change in solid state [5],Desorporption. Weight % change ([6]; 0 % RH),Sorption Weight % change ([6]; 0 % RH),Desorporption. Weight % change ([6]; 10 % RH),Sorption Weight % change ([6]; 10 % RH),Desorporption. Weight % change ([6]; 20 % RH),Sorption Weight % change ([6]; 20 % RH),Desorporption. Weight % change ([6]; 30 % RH),Sorption Weight % change ([6]; 30 % RH),also measured
"Cc1ccc(-c2noc([C@H]3C[C@@H]3F)n2)cc1NC(=O)c1cnc2ccccn12 [Form A, N-(5-(5-((1R,2S)-2-fluorocyclopropyl)-1,2,4-oxadiazol-3-yl)-2-methylphenyl)imidazo[1,2-a]pyridine-3-carboxamide]",Bulk (XRPD): No change,No change,0.06%,No change,0.07%,No change,No change,Form HB,Bulk (XRPD): No change,No change,0.06%,no change in solid state,0.0000%,0.0000%,0.0167%,0.0167%,0.0501%,0.0234%,0.0768%,0.0468%,Desorporption. Weight % change ([6]; 40 % RH): 0.0802%; Sorption Weight % change ([6]; 40 % RH): 0.0601%; Desorporption. Weight % change ([6]; 50 % RH): 0.0735%; Sorption Weight % change ([6]; 50 % RH): 0.0568%; Desorporption. Weight % change ([6]; 60 % RH): 0.0969%; Sorption Weight % change ([6]; 60 % RH): 0.0868%; Desorporption. Weight % change ([6]; 70 % RH): 0.1369%; Sorption Weight % change ([6]; 70 % RH): 0.1169%; Desorporption. Weight % change ([6]; 80 % RH): 0.1803%; Sorption Weight % change ([6]; 80 % RH): 0.1436%; Desorporption. Weight % change ([6]; 90 % RH): 0.2338%; Sorption Weight % change ([6]; 90 % RH): 0.2104%
"Cc1ccc(-c2noc([C@H]3C[C@@H]3F)n2)cc1NC(=O)c1cnc2ccccn12 [fumaric acid co-crystal, N-(5-(5-((1R,2S)-2-fluorocyclopropyl)-1,2,4-oxadiazol-3-yl)-2-methylphenyl)imidazo[1,2-a]pyridine-3-carboxamide fumaric acid co-crystal]",Bulk (XRPD): No change,No change,0.15%,No change,0.08%,No change,No change,No change,Bulk (XRPD): No change,No change,0.10%,no change in solid state,0.0000%,0.0000%,0.0153%,−0.0019%,0.0307%,0.0038%,0.0939%,0.0383%,"Modification (XRPD) ([2]; Water activity 0.205, Water/ethanol (v/v) 0.030/0.970, 2 weeks): No change; Modification (XRPD) ([2]; Water activity 0.298, Water/ethanol (v/v) 0.048/0.952, 2 weeks): No change; Modification (XRPD) ([2]; Water activity 0.398, Water/ethanol (v/v) 0.073/0.927, 2 weeks): No change; Modification (XRPD) ([2]; Water activity 0.502, Water/ethanol (v/v) 0.104/0.896, 2 weeks): No change; Modification (XRPD) ([2]; Water activity 0.605, Water/ethanol (v/v) 0.145/0.855, 2 weeks): No change; Modification (XRPD) ([2]; Water activity 0.700, Water/ethanol (v/v) 0.198/0.802, 2 weeks): No change; Modification (XRPD) ([2]; Water activity 0.802, Water/ethanol (v/v) 0.296/0.704, 2 weeks): No change; Modification (XRPD) ([2]; Water activity 0.900, Water/ethanol (v/v) 0.550/0.450, 2 weeks): No change; Modification (XRPD) ([2]; Water activity 1.000, Water/ethanol (v/v) 1.000/0.000, 2 weeks): No change; Desorporption. Weight % change ([6]; 40 % RH): 0.0996%; Sorption Weight % change ([6]; 40 % RH): 0.0632%; Desorporption. Weight % change ([6]; 50 % RH): 0.1130%; Sorption Weight % change ([6]; 50 % RH): 0.0843%; Sorption Weight % change ([6]; 60 % RH): 0.0958%; Desorporption. Weight % change ([6]; 70 % RH): 0.1590%; Sorption Weight % change ([6]; 70 % RH): 0.1322%; Desorporption. Weight % change ([6]; 80 % RH): 0.1897%; Sorption Weight % change ([6]; 80 % RH): 0.1590%; Desorporption. Weight % change ([6]; 90 % RH): 0.1935%; Sorption Weight % change ([6]; 90 % RH): 0.2107%"
